Measured values as given in patent EP2014655B1, “Etnangien derivatives and their use as antibiotics” (Helmholtz-Zentrum für Infektionsforschung, priority 2007, dated 2009).
In brackets after ≈: the same amount, converted by molar mass.

Assays:
[1] = system: Corynebacterium glutamicum (DSM 20300); assay: MIC by serial dilution; assay type: cell-based; settings: DSM20300
Description: (§1) Antibiotic activity, which is assumed to be based on the inhibition of the RNA polymerase, was tested against several gram-positive and gram-negative bacteria and Saccharomyces cerevisiae, including a Rifampicin resistant Staphylococcus aureus clinical isolate.
(§2) The microorganisms tested were grown on 1% peptone, 0.1% meat extract, 0.1% yeast extract medium containing 1.5% agar at pH 7.0. MIC values were determined by serial dilution. Table 2: Antimicrobial activity of Etnangien methylester in comparison to Etnangien acid 1

Nocardia corallina = assay: MIC by serial dilution; assay type: cell-based; settings: Gordonia rubripertincta
Description: as §1, §2

Saccharomyces cerevisiae = assay: MIC by serial dilution; assay type: cell-based
Description: as §1, §2

Staphylococcus aureus = assay: MIC by serial dilution; assay type: cell-based
Description: as §1, §2

Bacillus subtilis = assay: MIC by serial dilution; assay type: cell-based
Description: as §1, §2

[2] = system: S. aureus, Rifampicin resistant; assay: MIC by serial dilution; assay type: cell-based; settings: Staphylococcus aureus
Description: as §1, §2

E. coli = assay: MIC by serial dilution; assay type: cell-based; settings: Escherichia coli
Description: as §1, §2

Micrococcus luteus = assay: MIC by serial dilution; assay type: cell-based
Description: as §1, §2

[3] = target: T1, HIV I reverse transcriptase (HIVRT) (Human immunodeficiency virus type 1 group M subtype B, UniProt P04585); assay: Nucleic acid polymerase inhibition, in vitro assay; assay type: biochemical; settings: result in words
T1 construct: HIV I reverse transcriptase (HIVRT)
Description: (§3) Similar antiviral activity is found for the Etnangien esters according to the invention.
(§4) Measurement results showing the nucleic acid polymerase inhibition by Etnangien 1 are shown in Figure 2 for E. coli RNA polymerase (EcRNAP), E. coli DNA polymerase (EcDNAP), and HIV I reverse transcriptase (HIVRT), and in Figure 3 for Moloney murine leukemia virus reverse transcriptase (MuLVRT). In vitro assays were performed according to Richardson et al. (J. Biol. Chem. 222-232 (1964)) and Houts et al. (J. Virol. 517-522(1979)). Maximum inhibition for E. coli polymerases was found for concentrations of 50 to 60 µg/mL, although E. coli itself was rather resistant.

[4] = target: T2, Moloney murine leukemia virus reverse transcriptase (MuLVRT) (Moloney murine leukemia virus, UniProt P03355); assay: Nucleic acid polymerase inhibition, in vitro assay; assay type: biochemical
T2 construct: Moloney murine leukemia virus reverse transcriptase (MuLVRT)
Description: as §3, §4

Molecule | MIC [1] [µg/mL] | MIC (Nocardia corallina) [µg/mL] | MIC (Saccharomyces cerevisiae) [µg/mL] | MIC (Staphylococcus aureus) [µg/mL] | MIC (Bacillus subtilis) [µg/mL] | MIC [2] [µg/mL] | MIC (E. coli) [µg/mL] | MIC (Micrococcus luteus) [µg/mL] | inhibition of viral reverse transcriptase [3] | concentration of maximum inhibition ([4]; MuLVRT, Figure 3) [µg/mL] | inhibition of reverse transcriptase ([4]; at concentrations of 5 µg/mL)
COC(=O)CC/C(C)=C/C(O)C/C=C/C=C/C=C/C=C/C=C/C(C)=C/C(O)C(C)C1CC(O)CCCC(OC)C/C=C\C=C\CC(C)C(O)C(C)C(O)C(C)C(O)CC(=O)O1 (stereo not drawn) [Etnangien methylester] | 0.24 (≈ 0.281 µM) | 0.12 (≈ 0.14 µM) | > 40 | 2.5 (≈ 2.92 µM) | 20 (≈ 23.4 µM) | 3.1 (≈ 3.63 µM) | > 80 | 0.39 (≈ 0.456 µM) |  |  | 
Etnangien |  |  |  |  |  |  |  |  | potent inhibitor | 5 | inhibited completely
COC1C/C=C\C=C\CC(C)C(O)C(C)C(O)C(C)C(O)CC(=O)OC(C(C)C(O)/C=C(C)/C=C/C=C/C=C/C=C/C=C/CC(O)/C=C(\C)CCC(=O)O)CC(O)CCC1 (stereo not drawn) [Etnangien] |  |  |  |  |  |  | > 80 |  |  |  | 
